Where two headings read alike, the source gives them in different places.
Columns and labels:
H1975 = experiment: Non Small Cell Lung Cancer proliferation assay (Alamar Blue reduction), H1975; type: cell-based, human; details: Homo sapiens
Summary of the method: (§1)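 Compounds are tested at 1% DMSO final concentration against adherent NSCLC cells for 48 h at 37° C, with cytotoxicity measured by Alamar Blue reduction after a further 48 h incubation.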

H2122 = experiment: Dose response study (Alamar Blue), H2122; type: cell-based; details: Homo sapiens, NCI-H2122; H2122; 12 point doubling dilution 10 uM to 5 nM; 48 h treatment, alamar blue additional 48 h; read-out: IC50 H2122
Protocol: Dose response studies against 34 compounds from the pyridazinone and phenylfuran-carboxamide class were conducted. […] In addition, Tarceva was included in these dose response studies.
The dose response studies were done with the following standard procedure. First, the cells were counted and dispensed at 250 cells/well into 384-well microplates with compound. The cells were incubated for 48 hours at 37 C to complete treatment, and then alamar blue was added for an additional 48 hours. Finally, alamar blue reduction was measured and the data was loaded into ORIS, our data screening acquisition platform.

H358 = experiment: Non Small Cell Lung Cancer proliferation assay (Alamar Blue reduction), H358; type: cell-based; details: Homo sapiens, NCI-H358
Summary of the method: as §1

H1734 = experiment: Non Small Cell Lung Cancer proliferation assay (Alamar Blue reduction), H1734; type: cell-based, human; details: Homo sapiens, NCI-H1734
Summary of the method: as §1

H1118 = experiment: Non Small Cell Lung Cancer proliferation assay (Alamar Blue reduction), H1118; type: cell-based; details: Homo sapiens
in vitro = details: human
[1] = NCI-H1975, 48 h, H1975, 12 point doubling dilution 10 uM to 5 nM, 48 h treatment, alamar blue additional 48 h, read-out: IC50 H1975
[2] = NCI-H1975, dose response 10 M to 5 nM, IC50, read-out: Dose Response (uM) H1975
[3] = H358, 12 point doubling dilution 10 uM to 5 nM, 48 h treatment, alamar blue additional 48 h, read-out: IC50 H358
[4] = read-out: Dose Response (uM) H358
[5] = H1734, 12 point doubling dilution 10 uM to 5 nM, 48 h treatment, alamar blue additional 48 h, read-out: IC50 H1734
[6] = read-out: Dose Response (uM) H1734
[7] = H1118, 12 point doubling dilution 10 uM to 5 nM, 48 h treatment, alamar blue additional 48 h, read-out: IC50 H1118
[8] = read-out: Dose Response (uM) H1118

SMILES | IC50 (H1975; [1]) | IC50 (H1975; [2]) | IC50 (H2122) | IC50 (H358; [3]) | IC50 (H358; [4]) | IC50 (H1734; [5]) | IC50 (H1734; [6]) | IC50 (H1118; [7]) | IC50 at 72 h (in vitro; CytoTox (uM) NHBE) | IC50 at 72 h (in vitro; CytoTox (uM) WI-38) | IC50 (H1118; [8])
O=c1c(Cl)c(Cl)cnn1-c1ccc2c(c1)OCCO2 [compound 267068] | 0.37 µM | 0.25 µM | 1590 nM | 0.78 µM | 0.43 µM | 2.83 µM | 2.12 µM | 0.48 µM | 1.56 µM | 3.96 µM | 
Cc1cccc(-n2ncc(Cl)c(Cl)c2=O)c1C [compound 257018] | 0.54 µM | 0.35 µM | 2160 nM | 1.13 µM | 0.55 µM | 2.51 µM | 2.12 µM | 0.54 µM | 3.89 µM | 7.35 µM | 0.44 µM
O=c1c(Cl)c(Cl)cnn1-c1ccc2c(c1)CCC2 [compound 267066] | 2.23 µM | 0.19 µM | 8720 nM | 2.81 µM | 0.42 µM | 8.85 µM | 1.45 µM | 2.73 µM | 1.74 µM | 5.37 µM | 
Cc1nc2cc(-n3ncc(Cl)c(Cl)c3=O)ccc2s1 [compound 267067] | > 10 µM | 0.45 µM | > 10000 nM | > 10 µM | 1.38 µM | > 10 µM | 2.57 µM | > 10 µM | > 10 µM | > 10 µM | 
O=c1c(Br)c(Br)cnn1-c1cccc(C(F)(F)F)c1 [compound 267072] | 0.93 µM | 0.2 µM | 4610 nM | 0.85 µM | 0.15 µM | 3.19 µM | 0.51 µM | 1.21 µM | 1.43 µM | 2.17 µM | 
Cc1cccc(-n2ncc(I)c(I)c2=O)c1 [compound 267085] | 0.8 µM | 0.5 µM | 2340 nM | 1.33 µM | 0.3 µM | 2.99 µM | 1.94 µM | 1.03 µM | 2.88 µM | 5.51 µM | 
Cc1ccc(-n2ncc(Cl)c(Cl)c2=O)cc1Cl [compound 267070] | > 10 µM | 0.91 µM | > 10000 nM | > 10 µM | 0.97 µM | > 10 µM | 2.69 µM | > 10 µM | > 10 µM | > 10 µM | 
O=c1c(Br)c(Br)cnn1-c1ccccn1 [compound 267073] | 0.16 µM | 0.09 µM | 780 nM | 0.14 µM | 0.07 µM | 1.23 µM | 0.72 µM | 0.1 µM | 1.33 µM | 0.89 µM | 
O=c1c(Cl)c(Cl)cnn1-c1ccccn1 [compound 267090] | 0.16 µM | 0.2 µM | 890 nM | 0.21 µM | 0.06 µM | 2.47 µM | 1.1 µM | 0.15 µM | 1.43 µM | 1.19 µM | 
COc1nn(-c2cccc(C)c2)c(=O)c(Cl)c1Cl [compound 257028] | 1.18 µM | 0.65 µM | 4040 nM | 1.83 µM | 0.94 µM | 3.87 µM | 2.42 µM | 1.1 µM | 5.24 µM | 7.52 µM | 
Cc1cc(C)cc(-n2ncc(Cl)c(Cl)c2=O)c1 [compound 257020] | 0.58 µM | 0.27 µM | 2210 nM | 0.62 µM | 0.22 µM | 2.62 µM | 1.83 µM | 0.58 µM | 3.18 µM | 6.78 µM | 0.34 µM
Cc1cc(-n2ncc(Cl)c(Cl)c2=O)ccc1Br [compound 267064] | 7.58 µM | 0.71 µM | > 10000 nM | 7.65 µM | 0.47 µM | > 10 µM | 1.21 µM | > 10 µM | 4.04 µM | > 10 µM | 
Cc1cccc(-n2ncc(Br)c(Br)c2=O)c1 [compound 267071] | 0.36 µM | 0.22 µM | 1260 nM | 0.4 µM | 0.21 µM | 1.72 µM | 0.8 µM | 0.41 µM | 1.61 µM | 2.61 µM | 
Cc1ccc(-n2ncc(Cl)c(Cl)c2=O)cc1C [compound 257019] | 0.89 µM | 0.29 µM | 4380 nM | 0.79 µM | 0.24 µM | 4.65 µM | 2.01 µM | 0.94 µM | 3.24 µM | 7.02 µM | 0.29 µM
COc1cccc(-n2ncc(Cl)c(Cl)c2=O)c1 [compound 267061] | 0.31 µM | 0.37 µM | 1200 nM | 0.46 µM | 0.24 µM | 3.04 µM | 2.41 µM | 0.4 µM | 1.7 µM | 3.91 µM | 
O=c1c(Cl)c(Cl)cnn1Cc1ccccc1 [compound 267069] | 3.6 µM | 2.16 µM | 9040 nM | 6.66 µM | 4.76 µM | > 10 µM | 6.86 µM | 3.21 µM | 7.32 µM | > 10 µM | 
O=c1c(Cl)c(Cl)cnn1-c1ccc(Cl)cc1Cl [compound 267077] | 2.08 µM | 0.05 µM | > 10000 nM | 3.22 µM | 0.14 µM | > 10 µM | 0.52 µM | 3.73 µM | 1.1 µM | 1.74 µM | 
